# Test results reported in patent publication US10633419B2, “Immunomodulators” (BRISTOL-MYERS SQUIBB COMPANY, priority 2014, dated 2020).
# Starred links: 1 amine or outer side, 2 acyl side, 3 side chain; linkers in the order of their positions; H or OH if unused. Positions of bridges follow the written chain, without caps; N, C: chain ends. Non-standard residues stand in square brackets, D forms with d. Residues, ends and D or L forms follow the SMILES beside them. ξ: configuration not given here. *: point of attachment. Trp(1-CH2COOH) = N[C@@H](Cc1cn(CC(=O)O)c2ccccc12)C(=O)O; X9 = O=C(O)CCCCCCCCCCCCCCCCC(=O)N[C@@H](CCN*)C(=O)O; X24 = O=C(C[C@@H](Cc1ccc(O)cc1)C(=O)[*:1])C[*:2]; NH(CH2)14COOH = O=C(O)CCCCCCCCCCCCCCN*; βAsp = O=C(O)[C@H](CC(=O)[*:2])N[*:1]; PEG6 = NCCOCCOCCOCCOCCOCCOCCC(=O)O; Hyp = O=C(O)[C@@H]1C[C@@H](O)CN1; Myristoyl = CCCCCCCCCCCCCC(=O)*; NHtetradecyl = CCCCCCCCCCCCCCN*; NMeNle = CCCC[C@H](NC)C(=O)O; Tle = CC(C)(C)[C@H](N)C(=O)O; Pip = O=C(O)[C@@H]1CCCCN1; NMeA = CN[C@@H](C)C(=O)O; Dab = NCC[C@H](N)C(=O)O; Dap = NC[C@H](N)C(=O)O; ξD = NC(CC(=O)O)C(=O)O; PEG1 = NCCOCCC(=O)O
# Biological target: T1, PD-L1 (Homo sapiens, UniProt Q9NZQ7)
# T1 construct: hPDL1(19-239)-TVMV-His; made in house; host or cells: HEK293T
# T1 sequence (Q9NZQ7 with tags, fused parts or gaps): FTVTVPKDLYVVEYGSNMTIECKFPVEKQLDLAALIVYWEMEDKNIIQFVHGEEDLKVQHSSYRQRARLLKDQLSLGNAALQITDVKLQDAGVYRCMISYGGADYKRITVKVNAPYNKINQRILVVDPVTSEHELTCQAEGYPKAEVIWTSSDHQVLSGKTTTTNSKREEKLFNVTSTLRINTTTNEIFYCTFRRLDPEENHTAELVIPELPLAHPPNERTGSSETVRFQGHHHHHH
# Experiment: PD-1/PD-L1 Homogenous Time-Resolved Fluorescence (HTRF) binding assay (PD-1-Ig/PD-L1-His)
# Conditions: inhibition of PD-1-Ig binding to PD-L1-TVMV-His; value given as range class; read-out: HTRF IC50
# From the text: The ability of the macrocyclic peptides of the present disclosure to bind to PD-L1 was investigated using a PD-1/PD-L1 Homogenous Time-Resolved Fluorescence (HTRF) binding assay.
# Homogenous Time-Resolved Fluorescence (HTRF) Assays of Binding of Soluble PD-1 to Soluble PD-L1. Soluble PD-1 and soluble PD-L1 refers to proteins with carboxyl-end truncations that remove the transmembrane-spanning regions and are fused to heterologous sequences, specifically the Fc portion of the human immunoglobuling G sequence (Ig) or the hexahistidine epitope tag (His). All binding studies were performed in an HTRF assay buffer consisting of dPBS supplemented with 0.1% (w/v) bovine serum albumin and 0.05% (v/v) Tween-20. For the PD-1-Ig/PD-L1-His binding assay, inhibitors were pre-incubated with PD-L1-His (10 nM final) for 15 m in 4 μl of assay buffer, followed by addition of PD-1-Ig (20 nM final) in 1 μl of assay buffer and further incubation for 15m. PD-L1 fusion proteins from either human, cynomologous macaques, mouse, or other species were used. HTRF detection was achieved using europium crypate-labeled anti-Ig monoclonal antibody (1 nM final) and allophycocyanin (APC) labeled anti-His monoclonal antibody (20 nM final). Antibodies were diluted in HTRF detection buffer and 5 μl was dispensed on top of binding reaction. The reaction was allowed to equilibrate for 30 minutes and signal (665 nm/620 nm ratio) was obtained using an EnVision fluorometer. Additional binding assays were established between PD-1-Ig/PD-L2-His (20 and 5 nM, respectively), CD80-His/PD-L1-Ig (100 and 10 nM, respectively) and CD80-His/CTLA4-Ig (10 and 5 nM, respectively). Binding/competition studies between biotinylated Compound No. 71 and human PD-L1-His were performed as follows. Macrocyclic peptide inhibitors were pre-incubated with PD-L1-His (10 nM final) for 60 minutes in 4 μl of assay buffer followed by addition of biotinylated Compound No. 71 (0.5 nM final) in 1 μl of assay buffer. Binding was allowed to equilibrate for 30 minutes followed by addition of europium crypated labeled Streptavidin (2.5 pM final) and APC-labeled anti-His (20 nM final) in 5 μl of HTRF buffer. The reaction was allowed to equilibrate for 30m and signal (665 nm/620 nm ratio) was obtained using an EnVision fluorometer.
# Recombinant Proteins. Carboxyl-truncated human PD-1 (amino acids 25-167) with a C-terminal human Ig epitope tag [hPD-1 (25-167)-3S-IG] and human PD-L1 (amino acids 18-239) with a C-terminal His epitope tag [hPD-L1(19-239)-tobacco vein mottling virus protease cleavage site (TVMV)-His] were expressed in HEK293T cells and purified sequentially by recombinant Protein A affinity chromatography and size exclusion chromatography. Human PD-L2-His (Sino Biologicals), CD80-His (Sino Biologicals), CTLA4-Ig (RnD Systems) were all obtained through commercial sources.
row,Structure (SMILES),IC50
1,CCCCCCCCCCCCCC(=O)NCCCC[C@H](NC(=O)C(CC(=O)O)NC(=O)CCOCCOCCOCCOCCOCCOCCNC(=O)CNC(=O)[C@@H]1CSCC(=O)C[C@@H](Cc2ccc(O)cc2)C(=O)N(C)[C@@H](C)C(=O)N[C@@H](CC(=O)O)C(=O)N2CCC[C@H]2C(=O)N[C@@H](Cc2cnc[nH]2)C(=O)N[C@@H](CC(C)C)C(=O)N2C[C@H](O)C[C@H]2C(=O)N[C@@H](Cc2c[nH]c3ccccc23)C(=O)N[C@@H](CO)C(=O)N[C@@H](Cc2c[nH]c3ccccc23)C(=O)N(C)[C@@H](CCCC)C(=O)N(C)[C@@H](CCCC)C(=O)N[C@@H](CCCNC(=N)N)C(=O)N1)C(N)=O (some centres unmarked) [Example 11013] ([NMeA]DPHL[Hyp]WSW[NMeNle][NMeNle]RCG[PEG6][ξD]K(Myristoyl)-NH2; linker N-13 via X24),0.01 to 0.099 µM
2,CCCC[C@H]1C(=O)N(C)[C@@H](CCCC)C(=O)N[C@@H](CC(C)C)C(=O)N[C@H](C(=O)NCC(=O)NCC(=O)NCCCCCCCCCCCCCCC(=O)O)CSCC(=O)N[C@@H](Cc2ccc(O)cc2)C(=O)N(C)[C@@H](C)C(=O)N[C@@H](CC(N)=O)C(=O)N2CCC[C@H]2C(=O)N[C@@H](CN)C(=O)N[C@@H](CC(C)C)C(=O)N2C[C@H](O)C[C@H]2C(=O)N[C@@H](Cc2c[nH]c3ccccc23)C(=O)N[C@@H](CCN)C(=O)N[C@@H](Cc2cn(CC(=O)O)c3ccccc23)C(=O)N1C [Example 11194] ({CH2CO}-Y[NMeA]NP[Dap]L[Hyp]W[Dab][Trp(1-CH2COOH)][NMeNle][NMeNle]LCGG-{NH(CH2)14COOH}; thioether N-14),0.01 to 0.099 µM
3,CCCCCCCCCCCCCCNC(=O)CNC(=O)CNC(=O)[C@@H]1CSCC(=O)N[C@@H](Cc2ccc(O)cc2)C(=O)N(C)[C@@H](C)C(=O)N[C@@H](CC(N)=O)C(=O)N2CCC[C@H]2C(=O)N[C@@H](CCN)C(=O)N[C@@H](CC(C)C)C(=O)N2C[C@H](O)C[C@H]2C(=O)N[C@@H](Cc2c[nH]c3ccccc23)C(=O)N[C@@H](C(C)(C)C)C(=O)N[C@@H](Cc2c[nH]c3ccccc23)C(=O)N(C)[C@@H](CCCC)C(=O)N(C)[C@@H](CCCC)C(=O)N[C@@H](CCCNC(=N)N)C(=O)N1 [Example 11107] ({CH2CO}-Y[NMeA]NP[Dab]L[Hyp]W[Tle]W[NMeNle][NMeNle]RCGG-NHtetradecyl; thioether N-14),0.1 to 1.6 µM

# The next lines start with the values.
row,IC50,Structure (SMILES)
1,0.0003 to 0.0099 µM,CCCC[C@H]1C(=O)N(C)[C@@H](CCCC)C(=O)N[C@@H](CC(C)C)C(=O)N[C@H](C(=O)NCC(=O)N[C@@H](CC(=O)NCCOCCC(=O)NCC[C@H](NC(=O)CCCCCCCCCCCCCCCCC(=O)O)C(=O)O)C(=O)O)CSCC(=O)N[C@@H](Cc2ccc(O)cc2)C(=O)N2CCCC[C@H]2C(=O)N[C@@H](CC(N)=O)C(=O)N2CCC[C@H]2C(=O)N[C@@H](CN)C(=O)N[C@@H](CC(C)C)C(=O)N2C[C@H](O)C[C@H]2C(=O)N[C@@H](Cc2c[nH]c3ccccc23)C(=O)N[C@@H](CCN)C(=O)N[C@@H](Cc2cn(CC(=O)O)c3ccccc23)C(=O)N1C [Example 13161] ({CH2CO}-Y[Pip]NP[Dap]L[Hyp]W[Dab][Trp(1-CH2COOH)][NMeNle][NMeNle]LCG[βAsp][PEG1]-X9; thioether N-14)
2,0.01 to 0.099 µM,CCCC[C@H]1C(=O)N(C)[C@@H](CCCC)C(=O)N[C@@H](CCC(=O)O)C(=O)N[C@H](C(=O)NCC(=O)N[C@@H](Cc2cn(CC[C@H](NC(=O)CCCCCCCCCCCCCCC(=O)O)C(=O)O)nn2)C(N)=O)CSCC(=O)N[C@@H](Cc2ccc(O)cc2)C(=O)N(C)[C@@H](C)C(=O)N[C@@H](CC(=O)O)C(=O)N2CCC[C@H]2C(=O)N[C@@H](Cc2c[nH]cn2)C(=O)N[C@@H](CCCCN)C(=O)N2C[C@H](O)C[C@H]2C(=O)N[C@@H](Cc2c[nH]c3ccccc23)C(=O)N[C@@H](CCCCN)C(=O)N[C@@H](Cc2cn(CC(=O)O)c3ccccc23)C(=O)N1C [Example 14075]
